Nine molecules from US8969350B2, “Pharmaceutical product comprising a p38 kinase inhibitor and a second active ingredient” (Astrazeneca AB, priority 2008, dated 2015) can be followed below.

Series [1] concerns LPS stimulated TNFα production from human PBMC. Kind of series: Inhibition of LPS-induced TNFα production in human peripheral blood mononuclear cells (FLISA). The note with it: Compound A alone, n=17, read-out: pIC50 for inhibition of LPS-induced TNFα production from human PBMC (converted). The class given is cell-based.
Protocol: After the pre-incubation period, the cells were then incubated with LPS (1 μg/mL) for 4 hr at 37° C. to induce TNFα production. The total assay volume was 200 μL. At the end of the incubation period, 25 μL of the culture supernatant was analysed to quantify the TNFα released using a Flourescence-linked immunosorbance assay (FLISA). Fluorescence levels were read on an FMAT plate reader. Inhibition curves were fitted using a 4-parameter logistic equation in a non-linear curve fitting routine and activity was expressed as pIC50.
Series [2] concerns guinea pig trachea. Kind of series: Guinea-pig isolated tracheal ring, Protocol A: relaxation of methacholine pre-contracted rings. The note with it: mean ± s.e. mean, n=4; for EC50: Cavia porcellus. Here is the method: (§1) Guinea-pigs (300-600 g) were killed by cervical dislocation and the trachea removed. After clearing the adherent connective tissue, the trachea was cut into segments (2-3 cartilage rings in width) and suspended in 10 ml organ baths containing modified Krebs' solution (mM; NaCl, 90; NaHCO3, 45; KCl, 5; MgSO4.7H2O, 0.5; Na2HPO4.2H2O, 1; CaCl2, 2.25; glucose, 10; pH 7.4, gassed with 5% CO2, 95% O2 at 37° C.). The tracheal rings were attached to an isometric force transducer for the measurement of isometric tension. The tissues were washed and a force of 1 g was applied to each tissue.
(§2) Protocol A: The rings were pre-contracted with methacholine (1 μM) and a cumulative (0.3 nM-3 μM) isoprenaline concentration effect curve constructed. The rings were washed and either Compound A (4 nM) or vehicle was added. The rings were then contracted with a second concentration of methacholine (1 μM). Once the contraction had reached a plateau cumulative concentration response curves to Compound C (0.1 nM-1 μM), Compound E (1 nM-1 μM) or Compound H (0.1 nM-1 μM) were constructed. Data were collected using the ADInstruments chart4 software, the maximum tension generated at each concentration of agonist was recorded and the response expressed as percentage relaxation (mean±s.e.mean). The data was fitted to a four parameter logistic and a potency value (pEC50) generated (expressed as mean±s.e.mean). Protocol B: A cumulative concentration effect curve to methacholine (3 nM-30 μM) was constructed and then the tissue was washed. […] A second extended cumulative concentration response curve to methacholine was constructed (3 nM-1 mM). Data were collected using the ADInstruments chart4 software, the maximum tension generated at each concentration of agonist was recorded and the results were expressed as percentage of the maximum response measured in the first curve.

For series [3], the system named is guinea pig trachea. Nature of the series: Guinea-pig isolated tracheal ring, Protocol B: shift of methacholine concentration response curve (apparent pA2). The note with it: mean ± s.e. mean, n=4; for pA2 in the presence of Compound A: apparent pA2 vs methacholine in the presence of Compound A (4 nM); for pA2 value: apparent pA2 vs methacholine, compound alone, Schild plot slope of 1 assumed. Here is the method:
as §1
as §2, with “Once the contraction had reached a plateau cumulative concentration response curves to Compound C (0.1 nM-1 μM), Compound E (1 nM-1 μM) or Compound H (0.1 nM-1 μM) were constructed.” left out

The nature of series [4]: Water uptake by gravimetric vapour sorption (GVS). In kind it is physicochemical. The note with it: between RH of 0%-80%, as measured by GVS. The protocol: GVS profiles were measured using a Dynamic Vapour Sorption DVS-1 instrument. The solid sample ca. 1-5 mg was placed into a glass vessel and the weight of the sample was recorded during a dual cycle step method (40 to 90 to 0 to 90 to 0% relative humidity (RH), in steps of 10% RH).

Where [5] appears, read: compound alone (vehicle), relaxation of rings contracted with methacholine 1 μM, read-out: pEC50 value (converted).

Each structure is given as a SMILES string. Counter-ions that a name gives are not always drawn. Like-named read-outs stand apart in the source and are kept apart here.

For `CNCCOc1ccccc1C1(Nc2nccn(-c3cc(C(=O)NC4CC4)cc(F)c3C)c2=O)CC1` [Compound A, N-cyclopropyl-3-fluoro-4-methyl-5-[3-[[1-[2-[2-(methylamino)ethoxy]phenyl]cyclopropyl]amino]-2-oxo-pyrazin-1-yl]benzamide], the IC50 in series [1] is 7.94 nM.
In the case of `CCN(CC)CCN(CCNCCc1ccc(O)c2[nH]c(=O)sc12)C(=O)CCOCCc1cccc2ccccc12` [Compound C, N-[2-(diethylamino)ethyl]-N-(2-{[2-(4-hydroxy-2-oxo-2,3-dihydro-1,3-benzothiazol-7-yl)ethyl]amino}ethyl)-3-[2-(1-naphthyl)ethoxy]propanamide dihydrobromide], in the series with guinea pig trachea [2] (setting [5]), the EC50 was 10 nM. In addition, the pEC50 value in the series with guinea pig trachea [2] (compound alone (vehicle), relaxation of rings contracted with methacholine 1 μM, dihydrobromide) stood at 8.0 ± 0.05.
In the case of `O=C(O[C@H]1C[N+]2(CCCOc3ccccc3)CCC1CC2)C(O)(c1cccs1)c1cccs1` [Compound D, [(3R)-1-(3-phenoxypropyl)quinuclidin-1-ium-3-yl]2-hydroxy-2,2-bis(2-thienyl)acetate bromide, reference compound], in the series on guinea pig trachea [3], the “pA2 in the presence of Compound A” value is recorded as 10.5±0.07 and the pA2 value stood at 10.7±0.09.
In the case of `CCc1cc2c(cc1CC)CC(NC[C@H](O)c1ccc(O)c3[nH]c(=O)ccc13)C2` [Compound E, 5-[(1R)-2-[(5,6-diethylindan-2-yl)amino]-1-hydroxy-ethyl]-8-hydroxy-1H-quinolin-2-one maleate, reference compound], the EC50 is 15.8 nM with guinea pig trachea [2] (setting [5]) and 20 nM in the series with guinea pig trachea [2] (in the presence of Compound A (4 nM), rings contracted with methacholine 1 μM, read-out: pEC50 in the presence of Compound A (converted)).
For the molecule `O=C(CCNCCc1cccc(F)c1)N(CCNCCc1ccc(O)c2[nH]c(=O)sc12)C1CCCCC1` [Compound H, N-Cyclohexyl-N^3-[2-(3-fluorophenyl)ethyl]-N-(2-{[2-(4-hydroxy-2-oxo-2,3-dihydro-1,3-benzothiazol-7-yl)ethyl]amino}ethyl)-β-alaninamide di-D-mandelate], the EC50 with guinea pig trachea [2] (setting [5]) was 0.631 nM. Further, in the series on guinea pig trachea [2] (in the presence of Compound A (4 nM), rings contracted with methacholine 1 μM), the “pEC50 in the presence of Compound A” value was 9.2±0.10.
As to `C[C@@](C(=O)O[C@H]1C[N+]2(CCc3ccc(F)cc3)CCC1CC2)(c1ccccc1)N1CCCCC1` [Compound J, (R)-1-[2-(4-fluoro-phenyl)-ethyl]-3-((S)-2-phenyl-2-piperidin-1-yl-propionyloxy)-1-azonia-bicyclo[2.2.2]octane 4-methylbenzenesulfonate], in the series on guinea pig trachea [3] (4-methylbenzenesulfonate), the “pA2 in the presence of Compound A” value was 10.1±0.10 and the pA2 value was 9.9±0.12.
As for `O=C(C[N+]12CCC(CC1)[C@@H](OC(=O)C1(c3ccccc3)CCCCCC1)C2)Nc1ccccn1` [Compound K, ((R)-3-(1-phenyl-cycloheptanecarbonyloxy)-1-(pyridin-2-ylcarbamoylmethyl)-1-azonia-bicyclo[2.2.2]octane bromide], in the series with guinea pig trachea [3], the “pA2 in the presence of Compound A” value is reported as 9.9±0.15 and the pA2 value came out at 9.9±0.10.
Take `C[N+]1(C)[C@@H]2C[C@@H](OC(=O)C(O)(c3cccs3)c3cccs3)C[C@H]1[C@@H]1O[C@@H]12` [Compound M, (1R,2R,4S,5S,7S)-7-{[hydroxy(dithiophen-2-yl)acetyl]oxy}-9,9-dimethy-3-oxa-9-azoniatricyclo[3.3.1.0~2,4~]nonane bromide, reference compound]: in the series with guinea pig trachea [3], the “pA2 in the presence of Compound A” value is listed as 12.0±0.08.
As to `CNCCOc1ccccc1C1(Nc2nccn(-c3cc(C(=O)NC4CC4)cc(F)c3C)c2=O)CC1` [preparation 1 crystalline form A, N-Cyclopropyl-3-fluoro-4-methyl-5-[3-[[1-[2-[2-(methylamino)ethoxy]phenyl]cyclopropyl]amino]-2-oxo-1(2H)-pyrazinyl]-benzamide Crystalline Form A], the water uptake in series [4] stood at 0.4%.
